Assay results from patent US4353912A, “N-Haloalkyl nor apomorphines and method of inactivating dopamine receptor sites and enhancing dopaminergic activity therewith” (Northeastern University, priority 1980, dated 1982).
Counter-ions that a name gives are not always drawn.

Columns and labels:
[1] = target: T1, dopamine receptors (^3 H-NPA binding sites) (Rattus norvegicus, UniProt P61169); assay: In vitro inhibition of ^3 H-NPA binding to rat striatal homogenate; settings: for reversal of inhibition of ^3 H-NPA binding by washing of membranes: FIG. 8
T1 sequence (P61169 whole entry): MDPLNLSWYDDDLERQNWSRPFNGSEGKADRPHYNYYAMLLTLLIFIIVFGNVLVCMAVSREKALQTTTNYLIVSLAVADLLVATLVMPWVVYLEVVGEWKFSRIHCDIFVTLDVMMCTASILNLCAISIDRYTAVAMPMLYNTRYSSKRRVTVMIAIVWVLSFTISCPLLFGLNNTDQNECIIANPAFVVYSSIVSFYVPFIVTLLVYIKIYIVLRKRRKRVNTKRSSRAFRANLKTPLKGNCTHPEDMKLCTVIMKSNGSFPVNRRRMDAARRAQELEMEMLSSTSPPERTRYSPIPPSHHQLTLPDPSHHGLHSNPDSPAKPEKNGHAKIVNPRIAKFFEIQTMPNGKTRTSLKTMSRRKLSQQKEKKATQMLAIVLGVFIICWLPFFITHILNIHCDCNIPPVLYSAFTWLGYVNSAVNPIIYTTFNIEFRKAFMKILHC

[2] = target: T1, dopamine receptors (^3 H-NPA binding sites)
dopamine receptors [3] = assay: Apomorphine-induced climbing in mice (climbing index); type: in vivo; settings: for effect on apomorphine climbing: 10 mg/kg s.c.; for effect on apomorphine climbing index: apomorphine 1.0 mg/kg s.c.
Procedure: Climbing behavior was measured by placing mice in individual cages (20×15×15 cm) lined with wire mesh. A "climbing index", i.e., the percentage of time spent climbing during the 30-minute period following the first climb, was determined.

[4] = target: T2, dopamine-sensitive adenylate cyclase (Rattus norvegicus, UniProt P18901); assay: Inhibition of activation of dopamine-sensitive adenylate cyclase in rat striatal homogenates; type: biochemical
T2 sequence (P18901 whole entry): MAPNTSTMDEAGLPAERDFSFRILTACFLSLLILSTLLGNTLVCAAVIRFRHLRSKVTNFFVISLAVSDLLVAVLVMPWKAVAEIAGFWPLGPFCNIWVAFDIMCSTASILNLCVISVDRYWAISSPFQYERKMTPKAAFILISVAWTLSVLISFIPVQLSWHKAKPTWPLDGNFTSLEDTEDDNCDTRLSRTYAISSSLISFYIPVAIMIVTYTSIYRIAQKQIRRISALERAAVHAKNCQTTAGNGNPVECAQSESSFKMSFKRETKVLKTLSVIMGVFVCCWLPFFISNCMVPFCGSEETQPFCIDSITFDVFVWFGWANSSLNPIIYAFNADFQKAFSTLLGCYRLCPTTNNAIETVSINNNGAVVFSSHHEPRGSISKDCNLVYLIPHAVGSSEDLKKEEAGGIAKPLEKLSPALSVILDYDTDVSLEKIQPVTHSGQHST
T2 sequence (Q04400 whole entry partner): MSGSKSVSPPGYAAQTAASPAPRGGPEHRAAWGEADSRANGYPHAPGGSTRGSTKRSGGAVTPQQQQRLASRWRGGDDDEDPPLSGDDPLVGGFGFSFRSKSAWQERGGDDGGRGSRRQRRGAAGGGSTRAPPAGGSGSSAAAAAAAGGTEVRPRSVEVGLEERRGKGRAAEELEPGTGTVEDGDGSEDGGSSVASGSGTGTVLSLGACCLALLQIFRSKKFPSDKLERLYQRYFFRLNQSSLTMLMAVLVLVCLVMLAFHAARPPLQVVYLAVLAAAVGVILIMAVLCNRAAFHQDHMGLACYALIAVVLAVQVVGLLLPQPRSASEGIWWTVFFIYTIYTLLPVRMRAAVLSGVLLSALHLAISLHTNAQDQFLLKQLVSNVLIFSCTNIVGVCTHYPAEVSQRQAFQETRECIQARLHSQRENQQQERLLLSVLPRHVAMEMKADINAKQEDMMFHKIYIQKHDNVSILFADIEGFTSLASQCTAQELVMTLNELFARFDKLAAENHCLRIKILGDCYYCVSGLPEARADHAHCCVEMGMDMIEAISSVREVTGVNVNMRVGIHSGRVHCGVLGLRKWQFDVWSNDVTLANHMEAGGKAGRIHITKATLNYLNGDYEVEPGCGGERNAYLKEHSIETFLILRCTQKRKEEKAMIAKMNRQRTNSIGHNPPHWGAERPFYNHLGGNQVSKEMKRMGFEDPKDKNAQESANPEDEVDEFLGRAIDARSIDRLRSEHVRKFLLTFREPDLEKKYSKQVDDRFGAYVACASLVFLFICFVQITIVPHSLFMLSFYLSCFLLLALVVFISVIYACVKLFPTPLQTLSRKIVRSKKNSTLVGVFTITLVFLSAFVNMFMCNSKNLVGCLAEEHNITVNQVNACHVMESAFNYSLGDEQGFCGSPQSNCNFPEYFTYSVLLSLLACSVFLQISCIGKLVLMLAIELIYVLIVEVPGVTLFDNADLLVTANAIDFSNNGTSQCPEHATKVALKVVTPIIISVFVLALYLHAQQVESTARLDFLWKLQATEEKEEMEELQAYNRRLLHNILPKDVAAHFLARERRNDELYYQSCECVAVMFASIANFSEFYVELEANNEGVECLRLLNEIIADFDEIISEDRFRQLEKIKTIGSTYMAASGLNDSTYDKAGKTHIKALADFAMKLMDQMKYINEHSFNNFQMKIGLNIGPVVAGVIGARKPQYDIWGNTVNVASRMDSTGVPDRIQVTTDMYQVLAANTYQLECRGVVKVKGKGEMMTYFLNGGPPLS
Procedure: Washed tissue, including one specimen without NCA as a control, was then incubated with zero or 50 μM of dopamine in the presence of an excess of adenosine triphosphate for 2.5 minutes at 37° and the level of cyclic adenosine monophosphate in the incubation mixture with and without dopamine was assayed by a protein binding method. The increase in cyclic adenosine monophosphate levels due to the dopamine was estimated for all conditions.

[5] = tested on: striatal dopamine receptors; assay: Apomorphine-induced circling in unilateral striatectomized mice; type: in vivo
Procedure: Among such induced behavioral characteristics are circling, climbing and stereotypy.
Male albino mice in the weight range of 35-40 grams were used in the determination of circling behavior. The mice were prepared for circling experiments using standard stereotaxic techniques to place unilateral electrolesions in the right caudate-putamen (1.0 mm anterior to bregma, 2.0 mm lateral and 3.5 mm below the skull surface, 1.5 mA/15 s). […] Those mice circling less than 6 revolutions every 2 minutes were excluded from subsequent studies.

dopamine receptors [6] = assay: Apomorphine-induced stereotypy; type: in vivo; settings: 10 mg/kg pretreatment; apomorphine 1 mg/kg
Excerpt: Apomorphine-induced behavioral characteristics in the rodent are considered to involve dopamine agonist action on striatal and mesolimbic dopamine receptors. […] Among such induced behavioral characteristics are circling, climbing and stereotypy.

dopamine receptors [7] = assay: Circling/asymmetry in rats after unilateral intrastriatal injection and apomorphine challenge; type: in vivo, rat
Procedure: A further behavioral model utilized rats (male, Sprague-Dawley, 300±25 g). […] Bilateral guide cannulae were chronically implanted in the rats, using standard stereotaxic techniques, to allow drug/vehicle injection at the center of the caudate-putamen complex (Ant. 8.0, Lat. +3.0, Vert. +1.5, De Groot, 1959). Fourteen days after cannulation, the animals were manually restrained and the drug in a solvent vehicle was injected in a volume of 4 μliters (1 μliter/min) into the right and left striata, respectively. The 4 μliter contained dosages of 10 μg or 40 μg of the drug.
The resting asymmetry was particularly evident when the animals were disturbed and was also noted two and five days after the injection of the (-)N-(2-chloroethyl)norapomorphine. By the seventh day the ipsilateral asymmetry was variable and was not apparent by the fourteenth day.
Again, as in the circling experiments with the mice, it was apparent that the dopamine inhibitory actions of the drug endured for 2 to 4 days. The recovery of the behavioral response possibly reflects the resynthesis of dopamine receptors.

[8] = target: T2, dopamine-sensitive adenylate cyclase; settings: Walton et al., Eur. J. Pharmacol. 52: 231 (1978); cited from earlier work

CCCN1CCc2cccc3c2C1Cc1ccc(O)c(O)c1-3 (single isomer, unassigned) [^3 H-NPA, ^3 H-N-n-propylnorapomorphine, reference compound]
Bmax [1]: 190 fmol/mg protein
density of ^3 H-NPA binding sites [2]: approximately 180 fmol/mg protein

COc1ccc2c(c1OC(C)=O)-c1cc(O)cc3c1C(C2)N(C(=O)CN(CCCl)CCCl)CC3 (centres unmarked) [6-[2-bis(2-chloroethyl)amino]acetyl-11-acetoxy-2-hydroxy-10-methoxy-apoporphine hemihydrate, reference compound]
effect on apomorphine climbing (dopamine receptors [3]; four-hour pretreatment): failed to modify apomorphine climbing

COc1ccc2c(c1O)-c1cccc3c1[C@@H](C2)N(CCCl)CC3 [(-)N-(2-chloroethyl)norapocodiene.HCl, reference compound]
effect on apomorphine climbing (dopamine receptors [3]; four-hour pretreatment): failed to modify apomorphine climbing

OCCN1CCc2cccc3c2[C@H]1Cc1ccc(O)c(O)c1-3 [(-)N-(2-hydroxyethyl)norapomorphine.HCl]
reversal of inhibition of ^3 H-NPA binding by washing of membranes ([1]; 5×10^-7 M): reversed
effect on apomorphine climbing (dopamine receptors [3]; 90-minute pretreatment): failed to modify apomorphine climbing

Oc1ccc2c(c1O)-c1cccc3c1[C@@H](C2)N(CCCl)CC3 [NCA]
IC50 [1]: 1800 nM
reversal of inhibition of ^3 H-NPA binding by washing of membranes ([1]; 5×10^-6 M): not reversed
reversal of prevention of ^3 H-NPA binding by washing ([1]; NCA 10^-5 M, repeated washing): not reversed by repeated washing
inhibition of ^3 H-NPA binding in the presence of blocking agents ([1]; high concentrations of phentolamine and propranolol, NCA 3×10^-5 M): also apparent
percent dopamine stimulation of cAMP production at 10 µM ([4]; 10 min, NCA 10 μM, 10 min 37° C. preincubation, washed, 50 μM dopamine): 84%
percent dopamine stimulation of cAMP production at 30 µM ([4]; 10 min, NCA 30 μM, 10 min 37° C. preincubation, washed, 50 μM dopamine): 44%
percent dopamine stimulation of cAMP production at 75 µM ([4]; 10 min, NCA 75 μM, 10 min 37° C. preincubation, washed, 50 μM dopamine): 8%
inhibition at 10 µM ([4]; NCA 10 μM): 16%
inhibition at 30 µM ([4]; NCA 30 μM): 56%
inhibition at 75 µM ([4]; NCA 75 μM): 92%
effect on apomorphine climbing index (dopamine receptors [3]; 10 mg/kg i.p. pretreatment): reduced this index
effect on apomorphine climbing index (dopamine receptors [3]; 20 mg/kg i.p. pretreatment): greatly reduced
duration of reduction of climbing index (dopamine receptors [3]; after i.p. administration): up to between four and five days
inhibition of apomorphine-induced circling ([5]; 1.0 mg/kg s.c., apomorphine 0.5 mg/kg s.c., 4 hours to 7 days after administration): essentially no inhibition
reduction in circling ([5]; higher dosage levels (2.0 or 4.0 mg/kg s.c.), after 2 days): still apparent
reduction in circling ([5]; highest dosage level (4.0 mg/kg s.c.), after 5 days): 39%
reduction of number of ^3 H-NPA binding sites ([2]; 40 μg NCA intrastriatal, day 2): approximately 50%
number of sites available for ^3 H-NPA binding ([2]; 40 μg NCA intrastriatal, days 7 and 14): returned to control values
effect on submaximal stereotypic effect of apomorphine (repetitive sniffing, periodic biting, continuous biting) (dopamine receptors [6]): failed to modify
circling on apomorphine challenge (dopamine receptors [7]; 40 μg intrastriatal, apomorphine 0.5 mg/kg s.c., four hours and two days, to a lesser extent 5 days after administration): precipitated a clear circling behavior
ipsilateral asymmetry/circling movements after unilateral injection into the caudate-putamen (dopamine receptors [7]; 10 and 40 μg intrastriatal): induced ipsilateral asymmetry/circling movements within an hour
resting ipsilateral asymmetry (dopamine receptors [7]; fourteenth day): not apparent
resting ipsilateral asymmetry (dopamine receptors [7]; seventh day): variable
resting ipsilateral asymmetry (dopamine receptors [7]; two and five days after injection): noted

CN1CCc2cccc3c2[C@H]1Cc1ccc(O)c(O)c1-3 [apomorphine]
circling behavior ([5]; 0.25-1 mg/kg apomorphine, dose-dependent): 2-10 revolutions every 12 minutes

CC(COc1ccccc1)N(CCCl)Cc1ccccc1 (centres unmarked) [phenoxybenzamine]
action on dopamine-sensitive adenylate cyclase [8]: irreversible blocking action
